Data set [1] deals with HepG2. Nature of the data set: Hypoglycemic activity in Homo sapiens (human) HepG2 cells assessed as glucose consumption at 10 mg/l after 24 hr by glucose enzymatic assay (reference value: 1.972 +/-0.071 mmol/l). The format is functional.
The subject of data set [2] is HepG2. Nature of the data set: Hypoglycemic activity in Homo sapiens (human) HepG2 cells assessed as glucose consumption at 1 mg/l after 24 hr by glucose enzymatic assay (reference value: 1.972 +/-0.071 mmol/l). The format is functional.
Data set [3] deals with HepG2. Nature of the data set: Ratio of glucose consumption to cytotoxic OD490 absorbance for Homo sapiens (human) HepG2 cells (reference value: 3.438 +/-0.139 no unit).
In data set [4] the test system is HepG2. Nature of the data set: Cytotoxicity against Homo sapiens (human) HepG2 cells assessed as absorbance at 490 nm by MTT assay (reference value: 0.574 +/-0.019 no unit). The class given is cell-based. Conditions: hepg2, 10 mg/L.

Consider `CC(=O)Oc1cccc2c1C(=O)c1c(OC(C)=O)cc(C(=O)NC3CCCC3)cc1C2=O`, for which the Activity with HepG2 [1] was determined as 2.256 mmol/L; in the data set on HepG2 [2], 2.151 mmol/L. The Ratio in the data set with HepG2 [3] was 3.916. For the same molecule, in the data set on HepG2 [4], the OD is reported as 0.577.
For the molecule `CC(=O)Oc1cccc2c1C(=O)c1c(OC(C)=O)cc(C(=O)OCc3ccc([N+](=O)[O-])cc3)cc1C2=O`, the Activity with HepG2 [1] is 2.268 mmol/L; with HepG2 [2], 2.198 mmol/L. In addition, the Ratio in the data set with HepG2 [3] is 3.958. For the same molecule, the OD in the data set with HepG2 [4] was found to be 0.573.
In the same order, the values of `O=C1c2cccc(O)c2C(=O)c2c(O)cc(C(=O)N3CCCC3)cc21` are 2.315 mmol/L, 2.379 mmol/L, 4.116 and 0.565.
For `CN(C)C(=O)c1cc(O)c2c(c1)C(=O)c1cccc(O)c1C2=O`, the Activity in the data set on HepG2 [1] is reported as 2.485 mmol/L; with HepG2 [2], 2.444 mmol/L. Moreover, the Ratio in the data set with HepG2 [3] worked out at 4.449. In addition, in the data set with HepG2 [4], the OD is recorded as 0.56.
Regarding `CC(C)(C)[Si](C)(C)Oc1cccc2c1C(=O)c1c(O[Si](C)(C)C(C)(C)C)cc(C(=O)OCc3ccc([N+](=O)[O-])cc3)cc1C2=O`, the Activity was determined as 2.529 mmol/L in the data set on HepG2 [1] and 2.576 mmol/L in the data set on HepG2 [2]. In the data set with HepG2 [3], the Ratio was found to be 4.499. In addition, the OD in the data set with HepG2 [4] is reported as 0.563.
For the molecule `CN(C)C(=N)NC(=N)N` [METFORMIN], the Activity in the data set with HepG2 [1] came out at 2.25 mmol/L. For the same molecule, the Ratio in the data set with HepG2 [3] came out at 3.923. Further, the OD in the data set with HepG2 [4] amounted to 0.574.
As to `CC(=O)Oc1cccc2c1C(=O)c1c(OC(C)=O)cc(C(=O)N3CCCC3)cc1C2=O`, the figures for the Activity in the data set on HepG2 [1] and with HepG2 [2] were 2.541 mmol/L and 2.476 mmol/L, respectively. Also, in the data set with HepG2 [3], the Ratio came to 4.304. For the same molecule, the OD in the data set on HepG2 [4] is on record as 0.591.
Turning to `CC(C)(C)[Si](C)(C)Oc1cccc2c1C(=O)c1c(O[Si](C)(C)C(C)(C)C)cc(C(=O)NC3CCCC3)cc1C2=O`, the figures for the Activity in the data set with HepG2 [1] and in the data set on HepG2 [2] were 2.578 mmol/L and 2.369 mmol/L, respectively. The Ratio in the data set on HepG2 [3] turned out to be 4.563. Besides, in the data set on HepG2 [4], the OD is given as 0.565.

These data come from ChEMBL document CHEMBL3045105, “Synthesis and hypoglycemic activity evaluation of rhein amide derivatives” (Med Chem Res, 2013).
